{
  "source": "patent EP1013272A1",
  "about": "“Manipulation of the activity of a nitric oxide radical production pathway for the treatment of diseases associated with the presence of oxygen free radicals” (Biomedical Primate Research Centre (BPRC), priority 1998, dated 2000)",
  "key": {"splenocytes": {"test_system": "splenocytes", "test": "Superoxide anion release by splenocytes after in vivo HgCl2", "set-up": "species or system rat", "experimental": "(§1) Female BN and Lewis rats at 8 to 12 weeks of age were used in all experiments. Animals were obtained from Harlan CPB (Zeist, The Netherlands) and housed in the animal care facility of our institute and maintained on standard laboratory chow and water ad libitum. For some experiments, rats were injected twice with 1 mg HgCl2/kg body weight by the intraperitoneal route with an interval of 48 h. Four repeated i.p. injections with this dose of HgCl2 at 48 h intervals induce a TH2-biased autoimmune syndrome in BN but not Lewis rats that becomes clinically evident (massive proteinuria) approximately 13 days after the first injection with HgCl2 (16).\nThe pMØ monolayers were incubated for 20 h at 37°C in CM10 and subsequently washed (twice) with Hanks' balanced salt solution (HBSS) without phenol red. Thereafter, the cells were treated with PMA and assayed for ^·O2^- production by measuring the rate of SOD-inhibitable ferricytochrome C reduction (20, 21). To that purpose the macrophage monolayer was incubated for 1 h at 37°C with an 1.0 ml reaction mixture containing 100 µM ferricytochrome C in HBSS with or without PMA (100 ng/ml). […] Each test was run in duplicate and the absorption increase at 550 nm was measured using a Beckmann DU-5 spectrophotometer. ^·O2^- release by splenocytes was determined after Con A activation of 4 x 10^6 cells for 20 h. […]"}, "rat spleen cell cultures": {"test_system": "rat spleen cell cultures", "test": "In vivo exposure to HgCl2, then ELISPOT of Con A-stimulated spleen cell cultures", "settings": "for reduction in the ratio of IFN-γ pc/IL-4 pc: day 3 after first HgCl2 injection", "experimental": "as §1\nThe aseptically removed spleen was gently crushed with the blunt end of a 5-ml syringe plunger and passaged through a fine mesh nylon screen. Erythrocytes were hemolysed by adding cold sterile water for 20 sec. to cell pellets followed by the addition of half the volume of 2.7% saline. The number of cells was determined by use of Türk's solution and cell viability by means of trypan blue exclusion. Cell suspensions in which the viability was less than 85% were excluded from the studies. Splenocytes were washed twice with CM5, adjusted to 4 x 10^6 cells/ml, transferred to a 24-well culture plate (1.0 ml/well) and stimulated with Con A (5 µg/ml) in the presence or absence of various supplements (as indicated in the text) for 40 h at 37°C in a humidified atmosphere containing 5% CO2. Thereafter, non-adherent cells were collected and subjected to ELISPOT analyses as described below.\nThe ELISPOT assay for detecting single cytokine secreting cells has been detailed previously (17). Briefly, the wells of PVC microplates were coated with monoclonal antibodies specific for rat IFN-γ or rat IL-4. After washing and postcoating, 100 µl suspensions of Con A-activated splenocytes were pipetted into the wells. The cells were allowed the produce cytokines for either 4 h (IFN-γ pc) or 16 h (IL-4 pc). Thereafter, cells were lysed for 10 minutes with ice-cold distilled water. Subsequently, the wells were thoroughly washed with PBS containing 0.05% Tween-20. Spots were detected by the sequential incubation of biotinylated rabbit anti-cytokine antibodies and goat anti-biotin antibodies conjugated to alkaline phosphatase (AP). The AP substrate 5-bromo-4-chloro-3-indolyl phosphate was used to produce blue zones ('spots') that visualised the positions of the individual spot-forming cells (SFC). SFC were enumerated by image analysis using a stereo microscope coupled to a colour video camera and Micro Image software from Olympus Optical Co. The frequency of spontaneously occurring SFC was always less than 1% of the mitogen-induced frequency.\nSpleens were isolated from rats at 24 h after the second intraperitoneal injection with saline or HgCl2 (1 mg/kg b.w.). Spleen cells were stimulated with Con A (5 µg/ml) in the presence of 2 mM GSH. The experiments were performed at three independent occasions with similar results. At each occasion the ELISPOT analyses were performed in quadruplicate. One representative experiment is presented. Both reduction of IFN-γ pc and enhancement of IL-4 pc (BN splenocytes only) as a result of in vivo exposure to HgCl2 reached in all analyses statistical significance (p < 0.01)."}, "[1]": {"settings": "BN, HgCl2 in vivo, no culture supplement, Con A + 2 mM GSH (Table 4)"}, "[2]": {"settings": "BN, HgCl2 in vivo, no culture supplement, Con A + 2 mM GSH (Table 6)"}, "[3]": {"settings": "BN, HgCl2 1 mg/kg b.w. i.p. twice, spleens 24 h after second injection, Con A 5 µg/ml + 2 mM GSH"}, "[4]": {"settings": "Lewis, HgCl2 in vivo, no culture supplement, Con A + 2 mM GSH (Table 4)"}, "[5]": {"settings": "Lewis, HgCl2 in vivo, no culture supplement, Con A + 2 mM GSH (Table 6)"}, "[6]": {"settings": "Lewis, HgCl2 1 mg/kg b.w. i.p. twice, spleens 24 h after second injection, Con A 5 µg/ml + 2 mM GSH"}},
  "data": [
    {"compound": "[Cl][Hg][Cl]", "note": "[HgCl2, mercuric chloride]", "values": [
      {"measurement": "^·O2^- levels", "setting": "splenocytes", "result": "below the detection limit"},
      {"measurement": "reduction in the ratio of IFN-γ pc/IL-4 pc", "setting": "rat spleen cell cultures; BN splenocyte cultures", "result": "~6", "unit": "fold"},
      {"measurement": "IFN-γ pc per 1x10^4 MNC", "setting": "rat spleen cell cultures; [1]", "result": "30 ± 8", "unit": "per 1 x 10^4 MNC"},
      {"measurement": "IL-4 pc per 2x10^5 MNC", "setting": "rat spleen cell cultures; [1]", "result": "88 ± 14", "unit": "per 2 x 10^5 MNC"},
      {"measurement": "ratio IFN-γ pc/IL-4 pc", "setting": "rat spleen cell cultures; [1]", "result": 6.8},
      {"measurement": "IFN-γ pc per 1x10^4 MNC", "setting": "rat spleen cell cultures; [2]", "result": "35 ± 8", "unit": "per 1x10^4 MNC"},
      {"measurement": "IL-4 pc per 2x10^5 MNC", "setting": "rat spleen cell cultures; [2]", "result": "87 ± 14", "unit": "per 2x10^5 MNC"},
      {"measurement": "ratio pc IFN-γ/IL-4", "setting": "rat spleen cell cultures; [2]", "result": 8},
      {"measurement": "IFN-γ pc per 1x10^4 MNC", "setting": "rat spleen cell cultures; [3]", "result": "34 ± 8", "unit": "per 1 x 10^4 MNC"},
      {"measurement": "IL-4 pc per 2x10^5 MNC", "setting": "rat spleen cell cultures; [3]", "result": "101 ± 12", "unit": "per 2 x 10^5 MNC"},
      {"measurement": "ratio IFN-γ pc/IL-4 pc", "setting": "rat spleen cell cultures; [3]", "result": 6.7},
      {"measurement": "reduction in the ratio of IFN-γ pc/IL-4 pc", "setting": "rat spleen cell cultures; Lewis splenocyte cultures", "result": "~2", "unit": "fold"},
      {"measurement": "IFN-γ pc per 1x10^4 MNC", "setting": "rat spleen cell cultures; [4]", "result": "104 ± 1", "unit": "per 1 x 10^4 MNC"},
      {"measurement": "IL-4 pc per 2x10^5 MNC", "setting": "rat spleen cell cultures; [4]", "result": "11 ± 3", "unit": "per 2 x 10^5 MNC"},
      {"measurement": "ratio IFN-γ pc/IL-4 pc", "setting": "rat spleen cell cultures; [4]", "result": 189},
      {"measurement": "IFN-γ pc per 1x10^4 MNC", "setting": "rat spleen cell cultures; [5]", "result": "104 ± 11", "unit": "per 1x10^4 MNC"},
      {"measurement": "IL-4 pc per 2x10^5 MNC", "setting": "rat spleen cell cultures; [5]", "result": "13 ± 3", "unit": "per 2x10^5 MNC"},
      {"measurement": "ratio pc IFN-γ/IL-4", "setting": "rat spleen cell cultures; [5]", "result": 160},
      {"measurement": "IFN-γ pc per 1x10^4 MNC", "setting": "rat spleen cell cultures; [6]", "result": "103 ± 9", "unit": "per 1 x 10^4 MNC"},
      {"measurement": "IL-4 pc per 2x10^5 MNC", "setting": "rat spleen cell cultures; [6]", "result": "12 ± 7", "unit": "per 2 x 10^5 MNC"},
      {"measurement": "ratio IFN-γ pc/IL-4 pc", "setting": "rat spleen cell cultures; [6]", "result": 172}
    ]}
  ]
}
